Source: publication PMC9656702, “Unveiling a New Selenocyanate as a Multitarget Candidate with Anticancer, Antileishmanial and Antibacterial Potential” (Molecules, 2022)
Read-outs that look alike come from different tables or passages of the source.

Key:
HT-29 = assay: Antiproliferative MTT assay, HT-29 colon cancer cells; type: cell-based, human; details: MTT assay, 48 h, mean ± SD, read-out: IC50 HT-29
Description: (§1) The antiproliferative activities of the cinnamyl and benzodioxyl derivatives were assessed against six human cell lines of three different types of cancer (colon, lung, and breast) using the 3-(4,5-dimethylthiazol-2-yl)-2,5-diphenyltetrazolium bromide (MTT) assay at seven concentrations for 48 h. The results are expressed as the IC50 values and are outlined in Table 1.
(§2) The cell lines were obtained from the American Type Culture Collection (ATCC). All the cancer cell lines (HT-29, HCT-116, H1299, HTB-54, MDA-MB-231 and MCF-7) and the nontumorigenic cells (184B5) were maintained in RPMI 1640 medium (Gibco), supplemented with 10% fetal bovine serum (FBS; Gibco) and 1% antibiotics (10.00 units/mL penicillin and 10.00 mg/mL streptomycin; Gibco). Cells were preserved in tissue culture flasks at 37 °C and 5% CO2. Culture medium was replaced every three days.
(§3) The cytotoxic effect of each compound was initially tested at seven different concentrations ranging between 0.5 and 100 µM in the cell lines mentioned above. The cells were seeded (1 × 10^4 cells per well) in 96-well plates and incubated at 37 °C and 5% CO2 for 24 h. After attachment, cells were treated with either dimethyl sulfoxide (DMSO) or increasing concentrations of the corresponding selenocompound for 48 h. The effect of the compounds on cell viability was determined by the MTT assay. In brief, 20 µL of MTT (5 mg/mL) was added to each well 2.5 h prior to experiment termination. At the end of the incubation, the medium was removed, and the formazan crystals were dissolved in 50 µL of DMSO. Absorbance was measured at 550 nm on a microplate reader. IC50 values were calculated using OriginPro 8.5.1. software by nonlinear curve fitting. Selectivity indexes were calculated as the ratio of the IC50 values determined for the nonmalignant and the tumoral cells in the breast cell lines (IC50 (184B5)/IC50 (MDA-MB-231) and IC50 (184B5)/IC50 (MCF-7)). Data were obtained from at least three independent experiments performed in triplicates.

HCT-116 = assay: Antiproliferative MTT assay, HCT-116 colon cancer cells; type: cell-based, human; details: MTT assay, 48 h, mean ± SD, read-out: IC50 HCT-116
Description: as §1, §2, §3

HTB-54 = assay: Antiproliferative MTT assay, HTB-54 lung cancer cells; type: cell-based, human; details: Homo sapiens, HTB-54; MTT assay, 48 h, mean ± SD; read-out: IC50 HTB-54
Description: as §1, §2, §3

MDA-MB-231 = assay: Antiproliferative MTT assay, MDA-MB-231 breast cancer cells; type: cell-based, human; details: Homo sapiens, MDA-MB-231; MTT assay, 48 h, mean ± SD; read-out: IC50 MDA-MB-231
Description: as §1, §2, §3

MCF-7 = assay: Antiproliferative MTT assay, MCF-7 breast cancer cells; type: cell-based, human; details: MTT assay, 48 h, mean ± SD
Description: as §1, §2, §3

184B5 = assay: MTT assay in nonmalignant mammary gland cells 184B5; type: cell-based; details: nontumorigenic cells, MTT assay, 48 h, mean ± SD
Description: To assess their possible selectivity, the synthesized selenocompounds were then tested in a mammary gland (184B5) nonmalignant cell line, and the selectivity indexes (SI) were determined as the ratio of the IC50 values obtained for the nonmalignant cells and the homolog cancer cells.
as §2, §3

[1] = test system: Leishmania major promastigotes; assay: Parasite viability MTT assay, L. major promastigotes; type: cell-based; details: Leishmania major, 48 h, promastigotes, MTT assay, mean ± SD, read-out: IC50 Leishmania major
Description: (§4) The cytotoxic activities of all the derivatives against Leishmania major and Leishmania infantum promastigotes were studied by the MTT assay after exposing the parasites to five different concentrations of each compound for 48 h. Miltefosine and paromomycin, two currently available drugs for the treatment of leishmaniasis, were used as positive controls.
(§5) L. major (clone VI, MHOM/IL/80/Friendlin) and L. infantum (BCN-150) promastigotes were grown in continuous stirred M199 1X medium (Sigma, St Louis, MO, USA) at 26 °C supplemented with 25 mM HEPES (pH 7.2), 10% heat-inactivated FBS (Gibco, Gaithersburg, MD, USA), 0.1 mM adenine, 0.0005% (w/v) hemin, 0.0001% (w/v) biotin, 100 UI/mL penicillin and […] streptomycin (Gibco, Gaithersburg, MD, USA). Media were changed before each experiment to achieve exponential growth.
(§6) The antileishmanial activity was assessed by the MTT assay as previously described. Briefly, 3 × 10^6 promastigotes of both Leishmania strains were placed into a 96-well plate with supplemented M199 1X medium during their logarithmic growth phase. The parasites were treated with five increasing concentrations of the compounds ranging between 0.1 and 1000 µM at 26 °C for 48 h. At the termination point, 20 µL of MTT (5 mg/mL) was added and further incubated for 4 h. The resultant formazan crystals formed were dissolved in 80 µL of DMSO and the absorbance was measured at 550 nm on a microplate reader. IC50 values were calculated using OriginPro 8.5.1. software by nonlinear curve fitting. Miltefosine and paromomycin were used as reference drugs. Data were obtained from at least three independent experiments performed in triplicates.

[2] = test system: Leishmania infantum promastigotes; assay: Parasite viability MTT assay, L. infantum promastigotes; type: cell-based; details: Leishmania infantum, 48 h, promastigotes, MTT assay, mean ± SD, read-out: IC50 Leishmania infantum
Description: as §4, §5, §6

E. coli = assay: MIC and MBC assay, E. coli; type: cell-based, Escherichia coli; details: Escherichia coli; Gram-negative, 24 h at 37 °C
Description: (§7) The minimum inhibitory concentration (MIC) and the minimum bactericidal concentration (MBC) values of the selenocompounds were determined in a panel of six bacterial strains as a first approach to assess their antibacterial activity. Thus, the synthesized derivatives were tested against the Gram-negative bacteria Escherichia coli (E. coli), Klebsiella pneumoniae (K. pneumoniae) and Citrobacter freundii (C. freundii); and the Gram-positive bacteria Staphylococcus aureus (S. aureus), Streptococcus faecalis (S. faecalis), and Staphylococcus epidermidis (S. epidermidis). […]
(§8) All the selenocompounds were screened for their in vitro inhibitory activity against three Gram-negative (E. coli, K. pneumoniae and C. freundii) and three Gram-positive (S. aureus, S. faecalis and S. epidermidis) bacteria. Bacterial strains were kindly provided by the Department of Microbiology and Parasitology of the University of Navarra. The bacterial cells were grown in tryptic soy agar (TSA) plates and maintained at 4 °C.
(§9) The compounds were firstly dissolved in DMSO and serially diluted in a 96-well plate in tryptic soy broth (TSB) with eleven concentrations ranging from 400 µg/mL to 0.4 µg/mL with a final volume of 100 µL. Subsequently, 100 µL of a diluted suspension of bacterial cells with an optical density of 0.125 measured at 600 nm in TSB (inoculum of approximately 10^5 CFU/mL) was added to each well and incubated at 37 °C for 24 h. After the incubation period, each well was analyzed for the presence or absence of visual growth of bacterial cells. The lowest concentration of the test compound at which no visible growth occurred was determined as the MIC values. After incubation, 10 µL of the bacterial suspension from each well that presented antibacterial activity was added to divided TSA plates and incubated at 37 °C overnight.

K. pneumoniae = assay: MIC and MBC assay, K. pneumoniae; type: cell-based, Klebsiella pneumoniae; details: Klebsiella pneumoniae; Gram-negative, 24 h at 37 °C; read-out: MIC K. pneumoniae
Description: as §7, §8, §9

C. freundii = assay: MIC and MBC assay, C. freundii; type: cell-based, Citrobacter freundii; details: Citrobacter freundii; Gram-negative, 24 h at 37 °C; read-out: MIC C. freundii
Description: as §7, §8, §9

S. aureus = assay: MIC and MBC assay, S. aureus; type: cell-based, Staphylococcus aureus; details: Staphylococcus aureus; Gram-positive, 24 h at 37 °C
Description: as §7, §8, §9

S. faecalis = assay: MIC and MBC assay, S. faecalis; type: cell-based, Streptococcus faecalis; details: Enterococcus faecalis; Gram-positive, 24 h at 37 °C; read-out: MIC S. faecalis
Description: as §7, §8, §9

S. epidermidis = assay: MIC and MBC assay, S. epidermidis; type: cell-based, Staphylococcus epidermidis; details: Staphylococcus epidermidis; Gram-positive, 24 h at 37 °C; read-out: MIC S. epidermidis
Description: as §7, §8, §9

Row | Compound | IC50 (HT-29; Homo sapiens, HT-29, 48 h) [µM] | IC50 (HT-29) [µM] | IC50 (HCT-116; Homo sapiens, HCT-116, 48 h) [µM] | IC50 (HCT-116) [µM] | IC50 (HTB-54) [µM] | IC50 (MDA-MB-231) [µM] | IC50 (MCF-7; Homo sapiens, MCF7, read-out: IC50 MCF-7) [µM] | IC50 MCF-7 (MCF-7) | IC50 (184B5; Homo sapiens, 184B5, 48 h, read-out: IC50 184B5) [µM] | IC50 184B5 (184B5) | IC50 [1] [µM] | IC50 [2] [µM] | MIC (E. coli) [µg/mL] | MIC (K. pneumoniae) [µg/mL] | MIC (C. freundii) [µg/mL] | MIC (S. aureus) [µg/mL] | MIC (S. faecalis) [µg/mL] | MIC (S. epidermidis) [µg/mL] | melting point [°C]
1 | c1cc2c(cc1C[Se][Se]Cc1ccc3c(c1)OCO3)OCO2 [Compound 2b, 1,2-Bis(benzo[d][1,3]dioxol-5-ylmethyl)diselenide] | < 12 | 10.1 ± 1.2 | ~11 | 11.3 ± 1 | 41.6 ± 9.4 | 46.6 ± 12.1 | > 100 | completely inactive | > 100 | did not display any activity | 49.4 ± 16.7 | 56.1 ± 8.1 | > 200 | > 200 | > 200 | > 200 | > 200 | > 200 | 78 to 80
2 | CCCCCCCCCCCCCCCCOP(=O)([O-])OCC[N+](C)(C)C [Miltefosine, reference compound] | – | – | – | – | – | – | – | – | – | – | 66.6 ± 11.6 | – | – | – | – | – | – | – | –
3 | NC[C@@H]1O[C@H](O[C@H]2[C@@H](O)[C@H](O[C@@H]3[C@@H](O)[C@H](N)C[C@H](N)[C@H]3O[C@H]3O[C@H](CO)[C@@H](O)[C@H](O)[C@H]3N)O[C@@H]2CO)[C@H](N)[C@@H](O)[C@@H]1O [Paromomycin, reference compound] | – | – | – | – | – | – | – | – | – | – | 71 ± 3.3 | 18 ± 1 | – | – | – | – | – | – | –
